What was measured:
[1] = tested on: Clostridium perfringens ATCC 13124; format: cell-based; settings: brain heart infusion broth, pH 6.0, 30° C., 0% oxygen
[2] = tested on: Clostridium pasteurianum JEG2; assay: Mixed culture fermentation of Escherichia coli TG128 with Clostridium pasteurianum JEG2 (7 litre fermenters); format: cell-based; settings: Fermenter 3, mixed culture
[3] = 0.05% (w/v) added, 25-35 hours, pH 6.5, 37° C.

## CCCCCCCCCC(=O)OC(C)C(=O)O (stereo not shown) [Decanoyl-lactylate]
[1]
  MIC value: 0.04 % (w/v)

## CCCCCCCCCCCCCCCC(=O)OC(C)C(=O)O (stereo not shown) [Hexadecanoyl-lactylate]
[1]
  MIC value: 0.002 % (w/v)

## CCCCCCCCCCCCCC(=O)O [Tetradecanoic acid, reference compound]
[1]
  MIC value: >0.01 % (w/v)

## CCCCCCCCCCCCCC(=O)OC(C)C(=O)O (stereo not shown) [Tetradecanoyl-lactylate, tetradecanoyl-lactylate]
[2]; 0.025% (w/v) added
  results of Fermenter 3 compared with those at 0.05% (w/v): Exactly the same results
[2]; 0.05% (w/v) added
  endospore bearing cells, microscopic examination of the culture broth: no endospore bearing cells
  foam and putrid smell produced by the fermenter: no foam or putrid smell
  impurity profile of fermentation broth compared with the Escherichia coli TG128 standard fermentation (Fermenter 1): no difference in impurity profile
  performance of Fermenter 3 compared with Fermenter 1 (pure culture of Escherichia coli TG128): in every respect similar
[2]; [3]
  2-hydroxy butyric acid: <0.1 g/L
  % enantiomeric excess: (R − S)/(R + S): 99.3%
  Acetic acid: 0.3 g/L
  Benzoic acid: <0.3 g/L
  Butyric acid: 0.1 g/L
  Citric acid: <0.5 g/L
  Ethanol: 0.08 g/L
  Formic acid: <0.2 g/L
  Fumaric acid: <0.2 g/L
  Glycolic acid: <0.5 g/L
  Maleic acid: <0.2 g/L
  Malic acid: <0.5 g/L
  Oxalic acid: <0.2 g/L
  Propionic acid: <0.1 g/L
  Pyruvic acid: <0.1 g/L
  R-lactate: 81.8 g/L
  S-lactate: 0.3 g/L
  Sorbic acid: <0.1 g/L
  Succinic acid: <0.1 g/L
  glucose: 2.3 g/L
[2]; 0.05% (w/v) added, 25-35 hours, pH 6.5, 37° C., listed as tetradacanoyl-lactylate
  % enantiomeric excess: (R − S)/(R + S): ~100%
[1]
  MIC value: 0.001 % (w/v)

## CCCCCCCCCCCCCCOS(=O)(=O)[O-].[Na+] [Sodium tetradecyl sulfate, reference compound]
[1]
  MIC value: 0.001 % (w/v)

## CCCCCCCC(=O)OC(C)C(=O)[O-].[Na+] (stereo not shown) [Octanoyl-lactylate]
[1]
  MIC value: 0.05 % (w/v)

## CCCCCCCCCCCC(=O)OC(C)C(=O)O (stereo not shown) [Dodecanoyl-lactylate]
[1]
  MIC value: 0.002 % (w/v)

## CCCCCCCCC=CCCCCCCCC(=O)OC(C)C(=O)O (stereo not shown) [Olacta, Octadecenoyl-lactylate]
[1]
  MIC value: 0.02 % (w/v)

Source: patent US12031171B2, “Fatty acid esters against infections in fermentations” (PURAC BIOCHEM BV, priority 2016, dated 2024)
